# Measured values: article PMC3063124 (The Journal of neuroscience : the official journal of the …, 2011)
# Values joined by “and” are separate entries in the source; they are usually repeats but may differ in a detail not shown here. Equal entries are not always repeated. Where two headings read alike, the source gives them in different places. Marks after values point to notes of the source that are not given here.
# Tests used:
# [1] = target: GluN1/GluN2D L705F (Rattus norvegicus, UniProt Q62645, L705F); test: Two-electrode voltage-clamp recordings, mutant receptor in Xenopus oocytes; format: cell-based
# [2] = target: GluN1/GluN2D L705F (Rattus norvegicus, UniProt P35439+Q62645, L705F); test: as above; format: cell-based
# [3] = target: GluN1/GluN2D Y729A (Rattus norvegicus, UniProt Q62645, Y729A); test: as above; format: cell-based
# [4] = target: GluN1/GluN2D Y729A (Rattus norvegicus, UniProt P35439+Q62645, Y729A); test: as above; format: cell-based
# [5] = target: GluN1/GluN2D (Rattus norvegicus, UniProt P35439+Q62645); format: cell-based
# [6] = target: T1, GluN1/GluN2D (Rattus norvegicus, UniProt Q62645); format: cell-based
# [7] = target: GluN1/2A-(2D S1) chimera (Rattus norvegicus, UniProt Q00959+Q62645); test: Two-electrode voltage-clamp recordings, chimeric receptor in Xenopus oocytes; format: cell-based
# [8] = target: GluN1/GluN2D Q701Y (Rattus norvegicus, UniProt P35439+Q62645, Q701Y); test: Two-electrode voltage-clamp recordings, mutant receptor in Xenopus oocytes; format: cell-based
# [9] = target: GluN1/GluN2D Q701Y (Rattus norvegicus, UniProt Q62645, Q701Y); test: as above; format: cell-based
# [10] = extracellular oocyte recording solution; ref Mosley et al., 2010; cited from earlier work
# [11] = target: GluN1/2A-(2D S1+S2) chimera (Rattus norvegicus, UniProt Q00959+Q62645); test: Two-electrode voltage-clamp recordings, chimeric receptor in Xenopus oocytes; format: cell-based
# [12] = target: GluN1/GluN2A HDYS/QEQY + F680L + Y754K (Rattus norvegicus, UniProt Q00959, D675E/F680L/H674Q/S677Y/Y676Q/Y754K); test: Two-electrode voltage-clamp recordings, mutant receptor in Xenopus oocytes; format: cell-based
# [13] = target: GluN1/GluN2A HDYS/QEQY + F680L + Y754K (Rattus norvegicus, UniProt P35439+Q00959, D675E/F680L/H674Q/S677Y/Y676Q/Y754K); test: as above; format: cell-based
# [14] = target: GluN1/GluN2B (Rattus norvegicus, UniProt Q00960); format: cell-based
# [15] = target: GluN1/GluN2D K779Y (Rattus norvegicus, UniProt Q62645, K779Y); test: Two-electrode voltage-clamp recordings, mutant receptor in Xenopus oocytes; format: cell-based
# [16] = target: GluN1/GluN2D K779Y (Rattus norvegicus, UniProt P35439+Q62645, K779Y); test: as above; format: cell-based
# [17] = target: GluN1/GluN2D QEQY/HDYS (Rattus norvegicus, UniProt Q62645, E700D/Q699H/Q701Y/Y702S); test: as above; format: cell-based
# [18] = target: GluN1/GluN2D QEQY/HDYS (Rattus norvegicus, UniProt P35439+Q62645, E700D/Q699H/Q701Y/Y702S); test: as above; format: cell-based
# [19] = target: GluN1/GluN2D A752V (Rattus norvegicus, UniProt P35439+Q62645, A752V); test: as above; format: cell-based
# [20] = target: GluN1/GluN2D A752V (Rattus norvegicus, UniProt Q62645, A752V); test: as above; format: cell-based
# [21] = target: GluN1/GluN2D Y723A (Rattus norvegicus, UniProt P35439+Q62645, Y723A); test: as above; format: cell-based
# [22] = target: GluN1/GluN2D Y723A (Rattus norvegicus, UniProt Q62645, Y723A); test: as above; format: cell-based
# [23] = target: GluN1/GluN2C (Rattus norvegicus, UniProt Q00961); format: cell-based
# [24] = target: GluN1/GluN2A (Rattus norvegicus, UniProt Q00959); format: cell-based
# [25] = target: GluN1/2A-(2D S2) chimera (Rattus norvegicus, UniProt Q00959+Q62645); test: Two-electrode voltage-clamp recordings, chimeric receptor in Xenopus oocytes; format: cell-based
# [26] = target: T1, GluN1/GluN2D; format: cell-based; remark: listed apart in the source
# [27] = target: GluN1/GluN2D M726A (Rattus norvegicus, UniProt P35439+Q62645, M726A); test: Two-electrode voltage-clamp recordings, mutant receptor in Xenopus oocytes; format: cell-based
# [28] = target: GluN1/GluN2D M726A (Rattus norvegicus, UniProt Q62645, M726A); test: as above; format: cell-based
# [29] = target: GluN1/GluN2D QEQY/HDYS + L705F + K779Y (Rattus norvegicus, UniProt Q62645, E700D/K779Y/L705F/Q699H/Q701Y/Y702S); test: as above; format: cell-based
# [30] = target: GluN1/GluN2D QEQY/HDYS + L705F + K779Y (Rattus norvegicus, UniProt P35439+Q62645, E700D/K779Y/L705F/Q699H/Q701Y/Y702S); test: as above; format: cell-based
# [31] = 1 μM QNZ46 plus glycine continuously present, after removal of glutamate
# [32] = 3 μM QNZ46 plus glycine continuously present, after removal of glutamate
# [33] = fixed during fitting to the Hill equation
# [34] = fold shift relative to GluN1/GluN2D
# Chain of GluN1/GluN2B (Q00960 27-1482, other chains not shown): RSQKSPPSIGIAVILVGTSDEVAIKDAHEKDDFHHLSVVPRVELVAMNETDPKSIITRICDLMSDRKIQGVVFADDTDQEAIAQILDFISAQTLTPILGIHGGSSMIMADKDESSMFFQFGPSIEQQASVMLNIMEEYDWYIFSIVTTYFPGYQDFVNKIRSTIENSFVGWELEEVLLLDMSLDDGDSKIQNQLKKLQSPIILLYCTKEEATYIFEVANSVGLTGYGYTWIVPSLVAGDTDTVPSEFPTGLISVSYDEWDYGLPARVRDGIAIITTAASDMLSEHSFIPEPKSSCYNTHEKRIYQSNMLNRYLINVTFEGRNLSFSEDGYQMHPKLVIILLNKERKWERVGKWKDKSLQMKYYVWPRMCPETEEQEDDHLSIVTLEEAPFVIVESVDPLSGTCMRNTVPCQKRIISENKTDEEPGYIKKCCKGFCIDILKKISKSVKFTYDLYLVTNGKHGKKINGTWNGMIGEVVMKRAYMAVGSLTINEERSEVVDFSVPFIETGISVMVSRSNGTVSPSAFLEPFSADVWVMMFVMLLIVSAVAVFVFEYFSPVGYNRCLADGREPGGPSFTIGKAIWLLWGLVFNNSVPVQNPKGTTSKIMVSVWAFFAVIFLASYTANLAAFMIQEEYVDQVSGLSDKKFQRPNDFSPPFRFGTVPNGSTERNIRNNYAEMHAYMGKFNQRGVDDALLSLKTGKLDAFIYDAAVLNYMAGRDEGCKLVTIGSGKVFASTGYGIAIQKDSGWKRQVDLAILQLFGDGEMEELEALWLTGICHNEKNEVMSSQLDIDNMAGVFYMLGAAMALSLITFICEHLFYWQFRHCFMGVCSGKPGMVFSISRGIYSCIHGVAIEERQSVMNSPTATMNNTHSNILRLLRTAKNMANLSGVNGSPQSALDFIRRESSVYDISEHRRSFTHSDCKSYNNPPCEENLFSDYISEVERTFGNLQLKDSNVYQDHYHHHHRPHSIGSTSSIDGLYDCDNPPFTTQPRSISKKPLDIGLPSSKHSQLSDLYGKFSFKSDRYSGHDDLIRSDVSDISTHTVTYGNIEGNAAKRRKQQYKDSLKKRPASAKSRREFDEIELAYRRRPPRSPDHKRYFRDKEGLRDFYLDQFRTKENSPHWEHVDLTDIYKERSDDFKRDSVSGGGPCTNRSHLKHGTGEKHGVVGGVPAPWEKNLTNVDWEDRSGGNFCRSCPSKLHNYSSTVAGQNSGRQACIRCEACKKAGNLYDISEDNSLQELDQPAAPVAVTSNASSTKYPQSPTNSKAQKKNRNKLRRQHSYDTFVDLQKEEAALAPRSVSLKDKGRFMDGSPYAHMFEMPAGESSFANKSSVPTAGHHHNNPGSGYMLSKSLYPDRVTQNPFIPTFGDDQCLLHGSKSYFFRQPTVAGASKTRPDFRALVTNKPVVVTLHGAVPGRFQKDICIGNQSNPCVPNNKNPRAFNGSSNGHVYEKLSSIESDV
# Chain of GluN1/GluN2C (Q00961 20-1237, other chains not shown): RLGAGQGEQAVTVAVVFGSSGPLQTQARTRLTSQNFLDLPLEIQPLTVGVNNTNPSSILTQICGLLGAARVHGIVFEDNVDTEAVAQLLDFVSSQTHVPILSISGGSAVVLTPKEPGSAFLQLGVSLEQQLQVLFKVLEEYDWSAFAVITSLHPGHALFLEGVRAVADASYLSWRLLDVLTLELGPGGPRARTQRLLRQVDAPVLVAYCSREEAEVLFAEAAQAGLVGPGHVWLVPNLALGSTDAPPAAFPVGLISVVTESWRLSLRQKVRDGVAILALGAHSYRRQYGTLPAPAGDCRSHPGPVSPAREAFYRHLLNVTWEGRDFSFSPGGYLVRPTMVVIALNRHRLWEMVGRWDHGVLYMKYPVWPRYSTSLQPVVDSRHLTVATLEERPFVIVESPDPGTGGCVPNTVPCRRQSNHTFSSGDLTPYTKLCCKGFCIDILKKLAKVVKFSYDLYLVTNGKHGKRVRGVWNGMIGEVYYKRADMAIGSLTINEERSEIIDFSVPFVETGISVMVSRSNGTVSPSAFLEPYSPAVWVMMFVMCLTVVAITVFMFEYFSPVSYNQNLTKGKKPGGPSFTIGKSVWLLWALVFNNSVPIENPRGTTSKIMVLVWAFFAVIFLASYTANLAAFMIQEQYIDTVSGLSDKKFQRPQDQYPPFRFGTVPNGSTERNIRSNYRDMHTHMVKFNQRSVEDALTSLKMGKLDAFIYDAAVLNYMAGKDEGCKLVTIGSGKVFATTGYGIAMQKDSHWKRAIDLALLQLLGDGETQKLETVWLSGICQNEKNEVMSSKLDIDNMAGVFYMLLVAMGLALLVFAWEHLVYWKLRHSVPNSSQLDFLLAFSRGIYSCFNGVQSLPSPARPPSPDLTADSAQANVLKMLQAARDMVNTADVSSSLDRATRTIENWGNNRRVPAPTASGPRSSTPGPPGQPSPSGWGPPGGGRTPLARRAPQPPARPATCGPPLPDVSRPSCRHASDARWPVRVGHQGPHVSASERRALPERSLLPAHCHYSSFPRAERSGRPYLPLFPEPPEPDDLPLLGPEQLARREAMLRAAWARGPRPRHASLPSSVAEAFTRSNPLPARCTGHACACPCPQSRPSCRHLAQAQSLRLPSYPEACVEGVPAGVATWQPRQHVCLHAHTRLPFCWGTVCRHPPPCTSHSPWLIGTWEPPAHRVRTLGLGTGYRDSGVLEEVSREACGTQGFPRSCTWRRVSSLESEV
smiles,measurement,setting,value
"COc1ccc2nc(/C=C/c3cccc([N+](=O)[O-])c3)n(-c3ccc(C(=O)O)cc3)c(=O)c2c1 [QNZ46, (E)-4-(6-methoxy-2-(3-nitrostyryl)-4-oxoquinazolin-3(4H)-yl)-benzoic acid]",nH (Hill slope),[1],1.1
same,Relative IC50 (IC50 2X / IC50 2D),[1]; fold shift relative to GluN2D,5.9
same,IC50,[2],23 ± 2 µM
same,nH (Hill slope),[3],1.0
same,Relative IC50 (IC50 2X / IC50 2D),[3]; fold shift relative to GluN2D,0.2
same,IC50,[4],0.7 ± 0.04 µM
same,Kd,[5],4.9 µM
same,inhibition at 1 µM,"[5]; HEK293, read-out: % inhibition of steady-state responses, 1 μM QNZ46 applied after activation",23 ± 1%
same,inhibition at 1 µM,"[5]; HEK293, read-out: % inhibition of steady-state responses, 1 μM QNZ46 present before, during, and after activation",28 ± 3%
same,inhibition at 3 µM,"[5]; HEK293, read-out: % inhibition of steady-state responses, 3 μM QNZ46 applied after activation",50 ± 2%
same,inhibition at 3 µM,"[5]; HEK293, read-out: % inhibition of steady-state responses, 3 μM QNZ46 present before, during, and after activation",46 ± 3%
same,inhibition at 10 µM,"[5]; HEK293, read-out: % inhibition of steady-state responses, 10 μM QNZ46 applied after activation",75 ± 1%
same,inhibition at 10 µM,"[5]; HEK293, read-out: % inhibition of steady-state responses, 10 μM QNZ46 present before, during, and after activation",73 ± 2%
same,inhibition at 20 µM,"[5]; HEK293, read-out: % inhibition of steady-state responses, 20 μM QNZ46 applied after activation",88 ± 1%
same,inhibition at 20 µM,"[5]; HEK293, read-out: % inhibition of steady-state responses, 20 μM QNZ46 present before, during, and after activation",85 ± 2%
same,inhibition at 10 µM,"[5]; HEK293, read-out: inhibition of the instantaneous current (pre-inhibition), 10 μM QNZ46 alone, nominal absence of glutamate plus glycine",~11%
same,τinhibition,[6]; 1 μM QNZ46 applied after activation,356 ± 6 ms
same,Deactivation % slow,[6]; 1 μM QNZ46 plus glycine continuously present,78%
same,Deactivation τfast,[6]; [31],1210 ± 150 ms
same,Deactivation τslow,[6]; [31],5640 ± 160 ms
same,τinhibition,"[6]; 1 μM QNZ46 present before, during, and after activation",344 ± 6 ms
same,τinhibition,[6]; 3 μM QNZ46 applied after activation,268 ± 11 ms
same,Deactivation % slow,[6]; 3 μM QNZ46 plus glycine continuously present,79%
same,Deactivation τfast,[6]; [32],1340 ± 50 ms
same,Deactivation τslow,[6]; [32],7100 ± 180 ms
same,τinhibition,"[6]; 3 μM QNZ46 present before, during, and after activation",244 ± 5 ms
same,voltage-dependence of inhibition,"[6]; 10 μM QNZ46, 1000 μM glutamate plus 100 μM glycine",independent of membrane holding potential
same,τinhibition,[6]; 10 μM QNZ46 applied after activation,145 ± 13 ms
same,Deactivation % slow,[6]; 10 μM QNZ46 plus glycine continuously present,100%
same,Deactivation τslow,"[6]; 10 μM QNZ46 plus glycine continuously present, mono-exponential fit",8150 ± 330 ms
same,τinhibition,"[6]; 10 μM QNZ46 present before, during, and after activation",116 ± 3 ms
same,τinhibition,[6]; 20 μM QNZ46 applied after activation,91 ± 11 ms
same,Deactivation % slow,[6]; 20 μM QNZ46 plus glycine continuously present,100%
same,Deactivation τslow,"[6]; 20 μM QNZ46 plus glycine continuously present, mono-exponential fit",10130 ± 280 ms
same,τinhibition,"[6]; 20 μM QNZ46 present before, during, and after activation",74 ± 2 ms
same,increase in QNZ46 potency by glutamate binding to GluN2D,[6]; IC50 with glutamate vs glycine alone or no agonists,> 10 fold
same,τoff for QNZ46,[6]; continuous presence of glutamate,460 ms
same,dependence of inhibition on agonist concentration,[6]; increasing concentrations of glutamate or glycine,independent of agonist concentration
same,increase of time constants for deactivation (τweighted) in the presence of QNZ46,"[6]; up to, QNZ46 1 – 20 μM, after removal of glutamate",~ 2 fold
same,nH (Hill slope),[7]; [33],1.0 ^a
same,Relative IC50 (IC50 2X / IC50 2D),[7]; fold shift relative to GluN2D,23
same,IC50,[8],7.7 ± 0.7 µM
same,nH (Hill slope),[9],1.0
same,Relative IC50 (IC50 2X / IC50 2D),[9]; fold shift relative to GluN2D,2.0
same,maximum solubility,[10],70 µM
same,nH (Hill slope),[11],1.1
same,Relative IC50 (IC50 2X / IC50 2D),[11]; fold shift relative to GluN2D,1.2
same,nH (Hill slope),[12],1.2
same,Relative IC50 (IC50 2X / IC50 2D),[12]; fold shift relative to GluN2D,4.4
same,IC50,[13],17 ± 1 µM
same,nH (Hill slope),[14]; [33],1.0 ^a
same,Relative IC50 (IC50 2X / IC50 2D),[14]; [34],49
same,nH (Hill slope),[15],1.2
same,Relative IC50 (IC50 2X / IC50 2D),[15]; fold shift relative to GluN2D,4.9
same,IC50,[16],19 ± 2 µM
same,nH (Hill slope),[17],1.0
same,Relative IC50 (IC50 2X / IC50 2D),[17]; fold shift relative to GluN2D,2.6
same,IC50,[18],10 ± 1 µM
same,IC50,[19],16 ± 1 µM
same,nH (Hill slope),[20],1.0
same,Relative IC50 (IC50 2X / IC50 2D),[20]; fold shift relative to GluN2D,4.1
same,IC50,[21],7.6 ± 0.6 µM
same,nH (Hill slope),[22],1.3
same,Relative IC50 (IC50 2X / IC50 2D),[22]; fold shift relative to GluN2D,1.9
same,nH (Hill slope),[23],1.0
same,Relative IC50 (IC50 2X / IC50 2D),[23]; [34],1.8
same,nH (Hill slope),[24]; [33],1.0 ^a
same,Relative IC50 (IC50 2X / IC50 2D),[24]; [34],47
same,nH (Hill slope),[25],1.1
same,Relative IC50 (IC50 2X / IC50 2D),[25]; fold shift relative to GluN2D,1.2
same,nH (Hill slope),[26],1.1
same,selectivity for GluN2C- and GluN2D-containing receptors over receptors containing GluN2A or GluN2B,[26],~ 50 fold
same,Relative IC50 (IC50 2X / IC50 2D),[26]; [34],1.0
same,difference in QNZ46 IC50 values between GluN2A- and GluN2D-containing receptors,"[26]; rat, xenopus oocytes",~ 50 fold and 50 fold
same,IC50,[27],0.5 ± 0.02 µM
same,nH (Hill slope),[28],1.1
same,Relative IC50 (IC50 2X / IC50 2D),[28]; fold shift relative to GluN2D,0.1
same,nH (Hill slope),[29],1.0
same,Relative IC50 (IC50 2X / IC50 2D),[29]; fold shift relative to GluN2D,3.8
same,IC50,[30],15 ± 1 µM
